Data set [1] addresses T1, full length (FL) LXRβ (Homo sapiens, UniProt P55055, DUP175-175).
T1 construct: the full length (FL) proteins of LXRα (amino acids 1-447); NP005684; NP009052; expressed in transfected cells; host or cells: HEK293
T1 sequence (P55055 with tags, fused parts or gaps DUP175-175): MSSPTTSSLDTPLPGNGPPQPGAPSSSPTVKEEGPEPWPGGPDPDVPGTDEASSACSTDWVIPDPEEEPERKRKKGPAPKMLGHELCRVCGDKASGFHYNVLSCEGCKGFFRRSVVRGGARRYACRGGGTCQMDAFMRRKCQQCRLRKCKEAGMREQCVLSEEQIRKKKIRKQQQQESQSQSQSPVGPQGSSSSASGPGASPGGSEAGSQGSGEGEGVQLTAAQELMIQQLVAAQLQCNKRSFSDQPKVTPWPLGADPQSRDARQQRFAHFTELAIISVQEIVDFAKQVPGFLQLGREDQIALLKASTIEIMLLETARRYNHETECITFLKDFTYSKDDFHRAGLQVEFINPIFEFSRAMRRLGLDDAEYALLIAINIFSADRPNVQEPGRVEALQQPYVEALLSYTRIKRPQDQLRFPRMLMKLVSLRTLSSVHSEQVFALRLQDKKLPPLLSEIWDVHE
Put plainly: LXR Gal4 reporter transient transfection assay (FL-M2H Gal4β). It is filed as cell-based. The note with it: HEK293 cells, full length LXRβ; read-out: FL-M2H Gal4β (EC50 range). In a few lines: (§1)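 HEK293 cells were transiently co-transfected with NFkB activation-domain fusions of LXR (full length or LBD) and GAL4 DNA-binding-domain fusions of SRC1 (aa 552-887) or NCoR (aa 1906-2312), plus a GAL4-response-element Firefly luciferase reporter and a Renilla control. Compounds were added 4 h post-transfection, cells incubated 16 h, then dual luciferase read.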

The target in data set [2] is T2, ligand-binding domain (LBD) of LXRα (Homo sapiens, UniProt Q13133).
T2 construct: expressed in transfected cells; host or cells: HEK293
T2 sequence (Q13133 155-447): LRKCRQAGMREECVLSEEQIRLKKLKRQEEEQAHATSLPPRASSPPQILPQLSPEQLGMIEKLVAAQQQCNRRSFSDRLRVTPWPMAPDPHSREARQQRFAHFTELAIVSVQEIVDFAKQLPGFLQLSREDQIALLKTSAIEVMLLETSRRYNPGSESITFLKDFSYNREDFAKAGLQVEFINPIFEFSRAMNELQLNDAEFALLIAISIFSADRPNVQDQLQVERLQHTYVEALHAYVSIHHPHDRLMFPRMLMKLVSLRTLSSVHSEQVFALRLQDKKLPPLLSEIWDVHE
Put plainly: LXR Gal4 reporter transient transfection assay (LBD-M2H Gal4α). It is filed as cell-based. The note with it: HEK293 cells, LXRα LBD; read-out: LBD-M2H Gal4α (EC50 range). The essentials: as §1

In data set [3] the target is T3, full length (FL) LXRα (Homo sapiens, UniProt Q13133).
T3 construct: the full length (FL) proteins of LXRα (amino acids 1-447); NP005684; expressed in transfected cells; host or cells: HEK293
T3 sequence (Q13133 1-447): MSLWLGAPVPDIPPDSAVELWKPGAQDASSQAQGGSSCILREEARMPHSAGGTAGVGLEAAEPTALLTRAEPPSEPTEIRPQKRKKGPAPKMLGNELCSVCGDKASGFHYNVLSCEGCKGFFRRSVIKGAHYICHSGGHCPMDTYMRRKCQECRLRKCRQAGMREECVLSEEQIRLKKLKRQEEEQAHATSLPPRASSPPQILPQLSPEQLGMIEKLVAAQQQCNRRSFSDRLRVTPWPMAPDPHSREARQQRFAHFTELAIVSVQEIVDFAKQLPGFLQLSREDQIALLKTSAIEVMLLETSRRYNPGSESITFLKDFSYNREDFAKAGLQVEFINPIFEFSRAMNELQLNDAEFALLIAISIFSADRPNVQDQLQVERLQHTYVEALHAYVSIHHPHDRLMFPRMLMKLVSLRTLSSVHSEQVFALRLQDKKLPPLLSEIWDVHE
Put plainly: LXR Gal4 reporter transient transfection assay (FL-M2H Gal4α). The format is cell-based. The note with it: HEK293 cells, full length LXRα; read-out: FL-M2H Gal4α (EC50 range). The essentials:
as §1

The nature of data set [4]: Pharmacokinetics in mice after single oral dosing (blood/plasma and liver exposure). It is filed as in vivo, mice (C57/bl6/J). On the procedure:
The pharmacokinetics of the compounds was assessed in mice after single dosing and oral administrations. Blood/plasma and liver exposure was measured via LC-MS.
The study design was as follows:
Animals: C57/bl6/J (Janvier) males
Diet: standard rodent chow
Animal handling: animals were withdrawn from food at least 12 h before administration
Design: single dose oral administration, n=3 animals per group
Sacrifice: at stated time point (4, 12 or 24 h) after administration
Bioanalytics: LC-MS of liver and blood/plasma samples

For data set [5], the target named is T4, ligand-binding domain (LBD) of LXRβ (Homo sapiens, UniProt P55055, DUP175-175).
T4 construct: LXRβ (amino acids 156-461); expressed in transfected cells; host or cells: HEK293
T4 sequence (P55055 with tags, fused parts or gaps DUP175-175 limits assumed): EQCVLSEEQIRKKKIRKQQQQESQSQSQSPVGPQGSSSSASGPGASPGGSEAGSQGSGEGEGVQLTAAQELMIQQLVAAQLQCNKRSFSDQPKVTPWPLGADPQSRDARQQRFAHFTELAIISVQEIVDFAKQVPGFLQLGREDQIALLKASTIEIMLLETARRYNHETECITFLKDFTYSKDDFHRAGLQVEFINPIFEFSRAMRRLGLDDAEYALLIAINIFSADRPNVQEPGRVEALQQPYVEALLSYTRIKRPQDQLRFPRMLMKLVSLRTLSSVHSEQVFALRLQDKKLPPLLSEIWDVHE
Briefly: LXR Gal4 reporter transient transfection assay (LBD-M2H Gal4β). The format is cell-based. The note with it: HEK293 cells, LXRβ LBD; read-out: LBD-M2H Gal4β (EC50 range). The essentials: as §1

Data set [6] has as its target T5, LXRβ ligand-binding domain (Homo sapiens, UniProt P55055, DUP175-175).
T5 construct: amino acids 156-461; NP009052; made in house; host or cells: E. coli
T5 sequence (P55055 with tags, fused parts or gaps DUP175-175 limits assumed): T4 sequence (P55055 with tags, fused parts or gaps DUP175-175 limits assumed)
Briefly: TR-FRETβ activity assay (NCoA3 coactivator peptide recruitment). It is filed as biochemical. The note with it: TR-FRET, 1 μM 24(S)-25-epoxycholesterol prestimulation; read-out: FRETβ (EC50 range). In a few lines: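 Inverse agonism assessed by loss of coactivator recruitment, read as TR-FRET 665/615 nm after 1 h equilibration at 4 °C, in triplicate. Ten-point titration from 50 μM to 0.002 μM against LXRβ LBD (76 nM, GST fusion) prestimulated with 1 μM 24(S)-25-epoxycholesterol, with 400 nM NCoA3 peptide, pH 6.8. Sulfonyl acetic acids kept as 20 mM DMSO stocks with 100 mM TFA.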

The conditions of data set [7]: rat liver microsomal assay; cited from earlier work.
For data set [8] the following is noted: human liver microsomal assay; cited from earlier work. (In general: Liver microsomes are a subcellular fraction often used to study metabolism.)
Where [9] appears, read: 20 mg/kg single oral dose, time point 4 h.

Usually EC50 stands for the concentration needed to bring the measured effect to its halfway point.

Read-outs that look alike come from different tables or passages of the source.

Take `N#Cc1sccc1-c1c(-c2cccc(C3CC3C(=O)O)c2)n(S(=O)(=O)c2ccc(Cl)cc2)c2ccc(F)cc12` (centres unmarked) [3/24]: the half-maximal effective concentration (EC50) in data set [1], in data set [2], in data set [3] and in data set [5] was below 0.1 µM each time. The blood/plasma exposure result in data set [4] (setting [9]) is on record as “D (D: <100 nM)”. Besides, the liver exposure result in data set [4] (setting [9]) is reported as “C (C: 1 μM to ≤3 μM)”. The liver/blood ratio result in data set [4] (setting [9]) is “D (D: >30)”.
As to `N#Cc1sccc1-c1c(-c2cccc(C3CC3C(=O)O)c2)n(S(=O)(=O)c2ccc(Cl)cc2)c2ccccc12` (centres unmarked) [30/4], in data set [2], the EC50 lay within 0.1 to 1 µM. In data set [4] (setting [9]), the blood/plasma exposure result is “C (C: 100 nM to <300 nM)”, the liver exposure entry is given as “C (C: 1 μM to ≤3 μM)” and the liver/blood ratio result is given as “C (C: 10 to ≤30)”. Also, the EC50 in data set [5] was below 0.1 µM. For the same molecule, the EC50 in data set [6] was in the range of 1 to 10 µM.
Consider `N#Cc1sccc1-c1c(-c2cccc(N3CC(C(=O)O)C3)c2)n(S(=O)(=O)c2ccc(Cl)cc2)c2ccccc12` [30/7], for which the EC50 in data set [2] is below 0.1 µM. For the same molecule, in data set [4] (setting [9]), the blood/plasma exposure result is on record as “D (D: <100 nM)”, the liver exposure result is “B (B: 300 nM to ≤1 μM)” and the liver/blood ratio result is reported as “D (D: >30)”. Further, the EC50 in data set [5] is below 0.1 µM. The EC50 in data set [6] was in the range of 0.1 to 1 µM.
`Cc1ccc(S(=O)(=O)n2c(-c3cccc(-c4ccc(CN5CCN(C)CC5)cc4)c3)c(-c3ccsc3C#N)c3cc(F)ccc32)cc1` [Example 8, 3-(5-Fluoro-2-(4′-((4-methylpiperazin-1-yl)methyl)-[1,1′-biphenyl]-3-yl)-1-tosyl-1H-indol-3-yl)thiophene-2-carbonitrile]: the EC50 in data set [1] is below 0.1 µM. In data set [4] (setting [9]), the blood/plasma exposure result is “B (B: 300 nM to ≤1 μM)”, the liver exposure result is “D (D: >3 μM)” and the liver/blood ratio result was “B (B: 3 to ≤10)”. Besides, the EC50 in data set [6] was in the range of 0.1 to 1 µM.
Turning to `Cc1cc(C)c(S(=O)(=O)N(Cc2ccc(-c3cccc(S(C)(=O)=O)c3)cc2)Cc2ccc(C(F)(F)F)o2)c(C)c1` [GSK2033, reference compound], the “clearance (Clint)” value in data set [7] and in data set [8] was above 1.0 mL/min/mg protein in each case. Besides, the “blood/plasma exposure (below LLOQ, LLOQ given)” value in data set [4] (setting [9]) is given as “(14.4 ng/mL)”. Besides, in data set [4] (setting [9]), the “liver exposure (below LLOQ, LLOQ given)” value is “(9.6 ng/mL)”. For the same molecule, the “oral bioavailability (in words)” value in data set [4] (oral administration) is “not orally bioavailable”.

Source of the values: patent US11618747B2, “LXR modulators with bicyclic core moiety” (OrsoBio, Inc., priority 2018, dated 2023).
